These are literature values, as cited in patent US7939721B2, “Cropping systems for managing weeds” (Monsanto Technology LLC, priority 2006, dated 2011).

Structures are written as SMILES. Where two headings read alike, the source gives them in different places.

The data set relates to soybean plants transformed with dicamba monooxygenase (DMO)-encoding polynucleotide constructs. Conditions: cited from earlier work.

As to `COc1c(Cl)ccc(Cl)c1C(=O)O` [dicamba, 3,6-dichloro-o-anisic acid], the injury entry is “less than 20%” (18× application rate of 10,080 g/ha (9 lb/acre)); “less than 2%” (approximately 2× rate of application of 1122 g/ha); “less than 10%” (early pre-emergence application, 9× the labeled application rate (5,040 g/ha, 4.5 lb/acre)).
